For orientation: Ki means a dissociation constant, usually derived from enzyme kinetics or from competition with a known ligand.

Some results are limits rather than exact numbers.

Our source for the Ki values is BindingDB's records for doi:10.1021/jm100306a (University of Pennsylvania, 2010).

This test deals with T1, Arginase-1 (Homo sapiens, UniProt P05089).
T1 sequence (P05089 whole entry): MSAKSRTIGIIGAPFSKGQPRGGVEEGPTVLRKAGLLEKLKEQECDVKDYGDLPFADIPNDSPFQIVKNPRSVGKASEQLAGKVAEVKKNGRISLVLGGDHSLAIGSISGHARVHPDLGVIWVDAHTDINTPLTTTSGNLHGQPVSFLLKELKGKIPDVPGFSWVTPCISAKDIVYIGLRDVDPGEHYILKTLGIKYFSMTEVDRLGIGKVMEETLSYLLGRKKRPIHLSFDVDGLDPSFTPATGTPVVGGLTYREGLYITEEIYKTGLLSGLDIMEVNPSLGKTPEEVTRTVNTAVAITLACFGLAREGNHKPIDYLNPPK
As to the kind of experiment: Inhibition of human recombinant full length arginase 1 expressed in Escherichia coli BL21(DE3) by fixed point assay.

In the case of `Nc1ncc(CCCC(N)C(=O)O)[nH]1` (stereo unspecified) [2-amino-5-(2-aminoimidazol-4-yl)pentanoic acid], the Ki is over 800 mM.
